Measurements published in patent US20120245137A1 (Zalicus Pharmaceuticals Ltd., priority 2009, published 2012).

Legend:
[1] = molecular target: human α1G T-type channels (Homo sapiens, UniProt O43497); assay: T-type calcium channel block, whole cell patch clamp, α1G; format: cell-based; conditions: HEK cells stably expressing human α1G; mainly non-inactivated protocol; values above 10,000 nM represented as 10000
Outline: (§1)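 Whole-cell voltage clamp on stably transfected HEK 293 lines carrying human α1H or α1G. Two voltage protocols used: non-inactivated pre-pulse for resting block, inactivated for voltage-dependent block; test agents perfused locally in external solution (0.1-0.01% DMSO) following ~10 min rest.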

[2] = molecular target: human α1H T-type channels (Homo sapiens, UniProt O95180); assay: T-type calcium channel block, whole cell patch clamp, α1H; format: cell-based; conditions: HEK cells stably expressing human α1H; mainly non-inactivated protocol; values above 10,000 nM represented as 10000
Chain of human α1H T-type channels (O95180 whole entry): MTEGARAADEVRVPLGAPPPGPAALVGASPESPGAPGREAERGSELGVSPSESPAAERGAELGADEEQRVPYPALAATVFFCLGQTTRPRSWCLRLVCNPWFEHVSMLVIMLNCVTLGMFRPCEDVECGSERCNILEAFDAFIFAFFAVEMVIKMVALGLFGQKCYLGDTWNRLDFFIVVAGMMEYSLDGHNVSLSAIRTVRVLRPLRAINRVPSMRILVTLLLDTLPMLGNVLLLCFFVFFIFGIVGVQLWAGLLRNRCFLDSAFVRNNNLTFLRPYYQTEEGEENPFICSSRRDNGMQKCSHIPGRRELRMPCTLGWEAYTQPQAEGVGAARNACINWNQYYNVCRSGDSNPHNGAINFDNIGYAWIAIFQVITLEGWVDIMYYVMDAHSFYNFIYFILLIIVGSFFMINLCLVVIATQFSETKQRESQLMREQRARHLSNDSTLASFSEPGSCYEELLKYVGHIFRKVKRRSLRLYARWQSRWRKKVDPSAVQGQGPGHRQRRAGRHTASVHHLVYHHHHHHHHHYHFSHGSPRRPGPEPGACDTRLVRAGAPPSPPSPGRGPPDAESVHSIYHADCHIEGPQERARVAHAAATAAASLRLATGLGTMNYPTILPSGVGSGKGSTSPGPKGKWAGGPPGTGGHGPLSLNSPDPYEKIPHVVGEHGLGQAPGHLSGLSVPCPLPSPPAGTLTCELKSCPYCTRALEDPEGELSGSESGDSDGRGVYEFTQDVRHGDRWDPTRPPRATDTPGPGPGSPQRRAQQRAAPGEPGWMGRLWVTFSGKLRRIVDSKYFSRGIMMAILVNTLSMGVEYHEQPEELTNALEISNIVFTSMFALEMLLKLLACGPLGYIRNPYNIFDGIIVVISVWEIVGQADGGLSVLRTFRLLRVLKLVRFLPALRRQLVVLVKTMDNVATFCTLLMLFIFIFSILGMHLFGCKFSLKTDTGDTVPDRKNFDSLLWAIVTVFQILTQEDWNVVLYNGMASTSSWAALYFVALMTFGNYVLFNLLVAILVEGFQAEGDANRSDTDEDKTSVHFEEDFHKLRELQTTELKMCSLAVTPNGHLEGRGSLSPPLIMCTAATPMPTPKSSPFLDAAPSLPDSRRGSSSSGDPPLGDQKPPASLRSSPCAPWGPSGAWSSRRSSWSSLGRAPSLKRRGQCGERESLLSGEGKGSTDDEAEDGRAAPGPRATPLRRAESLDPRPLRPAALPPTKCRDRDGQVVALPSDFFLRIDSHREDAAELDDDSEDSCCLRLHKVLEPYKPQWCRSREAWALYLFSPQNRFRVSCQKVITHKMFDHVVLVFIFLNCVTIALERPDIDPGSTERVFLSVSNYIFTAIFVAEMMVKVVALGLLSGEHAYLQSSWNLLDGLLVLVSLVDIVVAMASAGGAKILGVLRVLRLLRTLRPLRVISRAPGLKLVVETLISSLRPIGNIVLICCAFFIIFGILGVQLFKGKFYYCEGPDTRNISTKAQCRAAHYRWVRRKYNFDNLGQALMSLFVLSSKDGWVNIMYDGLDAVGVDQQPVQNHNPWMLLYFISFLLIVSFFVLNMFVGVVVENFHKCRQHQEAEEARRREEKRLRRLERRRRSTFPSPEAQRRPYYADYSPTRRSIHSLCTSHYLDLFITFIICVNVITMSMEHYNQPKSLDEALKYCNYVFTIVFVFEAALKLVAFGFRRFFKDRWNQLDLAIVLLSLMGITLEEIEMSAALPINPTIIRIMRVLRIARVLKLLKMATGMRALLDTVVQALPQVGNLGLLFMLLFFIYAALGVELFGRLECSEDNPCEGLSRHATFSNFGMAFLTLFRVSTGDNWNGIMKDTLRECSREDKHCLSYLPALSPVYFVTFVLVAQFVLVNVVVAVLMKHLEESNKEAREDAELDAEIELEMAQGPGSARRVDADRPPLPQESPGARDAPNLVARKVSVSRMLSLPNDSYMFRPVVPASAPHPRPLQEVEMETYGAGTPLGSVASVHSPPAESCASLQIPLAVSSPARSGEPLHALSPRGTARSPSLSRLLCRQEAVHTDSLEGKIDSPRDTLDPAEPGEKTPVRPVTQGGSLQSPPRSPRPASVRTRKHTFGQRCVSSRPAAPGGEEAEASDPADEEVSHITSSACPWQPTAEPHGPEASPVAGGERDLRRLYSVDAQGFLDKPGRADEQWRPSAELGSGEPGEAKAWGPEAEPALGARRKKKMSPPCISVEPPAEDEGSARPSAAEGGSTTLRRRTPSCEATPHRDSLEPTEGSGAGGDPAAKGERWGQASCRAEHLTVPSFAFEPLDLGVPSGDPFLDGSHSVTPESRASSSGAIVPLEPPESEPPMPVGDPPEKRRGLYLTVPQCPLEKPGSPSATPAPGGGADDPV
Outline: as §1

Chain of human α1G T-type channels (O43497 whole entry, the tested form may be a part): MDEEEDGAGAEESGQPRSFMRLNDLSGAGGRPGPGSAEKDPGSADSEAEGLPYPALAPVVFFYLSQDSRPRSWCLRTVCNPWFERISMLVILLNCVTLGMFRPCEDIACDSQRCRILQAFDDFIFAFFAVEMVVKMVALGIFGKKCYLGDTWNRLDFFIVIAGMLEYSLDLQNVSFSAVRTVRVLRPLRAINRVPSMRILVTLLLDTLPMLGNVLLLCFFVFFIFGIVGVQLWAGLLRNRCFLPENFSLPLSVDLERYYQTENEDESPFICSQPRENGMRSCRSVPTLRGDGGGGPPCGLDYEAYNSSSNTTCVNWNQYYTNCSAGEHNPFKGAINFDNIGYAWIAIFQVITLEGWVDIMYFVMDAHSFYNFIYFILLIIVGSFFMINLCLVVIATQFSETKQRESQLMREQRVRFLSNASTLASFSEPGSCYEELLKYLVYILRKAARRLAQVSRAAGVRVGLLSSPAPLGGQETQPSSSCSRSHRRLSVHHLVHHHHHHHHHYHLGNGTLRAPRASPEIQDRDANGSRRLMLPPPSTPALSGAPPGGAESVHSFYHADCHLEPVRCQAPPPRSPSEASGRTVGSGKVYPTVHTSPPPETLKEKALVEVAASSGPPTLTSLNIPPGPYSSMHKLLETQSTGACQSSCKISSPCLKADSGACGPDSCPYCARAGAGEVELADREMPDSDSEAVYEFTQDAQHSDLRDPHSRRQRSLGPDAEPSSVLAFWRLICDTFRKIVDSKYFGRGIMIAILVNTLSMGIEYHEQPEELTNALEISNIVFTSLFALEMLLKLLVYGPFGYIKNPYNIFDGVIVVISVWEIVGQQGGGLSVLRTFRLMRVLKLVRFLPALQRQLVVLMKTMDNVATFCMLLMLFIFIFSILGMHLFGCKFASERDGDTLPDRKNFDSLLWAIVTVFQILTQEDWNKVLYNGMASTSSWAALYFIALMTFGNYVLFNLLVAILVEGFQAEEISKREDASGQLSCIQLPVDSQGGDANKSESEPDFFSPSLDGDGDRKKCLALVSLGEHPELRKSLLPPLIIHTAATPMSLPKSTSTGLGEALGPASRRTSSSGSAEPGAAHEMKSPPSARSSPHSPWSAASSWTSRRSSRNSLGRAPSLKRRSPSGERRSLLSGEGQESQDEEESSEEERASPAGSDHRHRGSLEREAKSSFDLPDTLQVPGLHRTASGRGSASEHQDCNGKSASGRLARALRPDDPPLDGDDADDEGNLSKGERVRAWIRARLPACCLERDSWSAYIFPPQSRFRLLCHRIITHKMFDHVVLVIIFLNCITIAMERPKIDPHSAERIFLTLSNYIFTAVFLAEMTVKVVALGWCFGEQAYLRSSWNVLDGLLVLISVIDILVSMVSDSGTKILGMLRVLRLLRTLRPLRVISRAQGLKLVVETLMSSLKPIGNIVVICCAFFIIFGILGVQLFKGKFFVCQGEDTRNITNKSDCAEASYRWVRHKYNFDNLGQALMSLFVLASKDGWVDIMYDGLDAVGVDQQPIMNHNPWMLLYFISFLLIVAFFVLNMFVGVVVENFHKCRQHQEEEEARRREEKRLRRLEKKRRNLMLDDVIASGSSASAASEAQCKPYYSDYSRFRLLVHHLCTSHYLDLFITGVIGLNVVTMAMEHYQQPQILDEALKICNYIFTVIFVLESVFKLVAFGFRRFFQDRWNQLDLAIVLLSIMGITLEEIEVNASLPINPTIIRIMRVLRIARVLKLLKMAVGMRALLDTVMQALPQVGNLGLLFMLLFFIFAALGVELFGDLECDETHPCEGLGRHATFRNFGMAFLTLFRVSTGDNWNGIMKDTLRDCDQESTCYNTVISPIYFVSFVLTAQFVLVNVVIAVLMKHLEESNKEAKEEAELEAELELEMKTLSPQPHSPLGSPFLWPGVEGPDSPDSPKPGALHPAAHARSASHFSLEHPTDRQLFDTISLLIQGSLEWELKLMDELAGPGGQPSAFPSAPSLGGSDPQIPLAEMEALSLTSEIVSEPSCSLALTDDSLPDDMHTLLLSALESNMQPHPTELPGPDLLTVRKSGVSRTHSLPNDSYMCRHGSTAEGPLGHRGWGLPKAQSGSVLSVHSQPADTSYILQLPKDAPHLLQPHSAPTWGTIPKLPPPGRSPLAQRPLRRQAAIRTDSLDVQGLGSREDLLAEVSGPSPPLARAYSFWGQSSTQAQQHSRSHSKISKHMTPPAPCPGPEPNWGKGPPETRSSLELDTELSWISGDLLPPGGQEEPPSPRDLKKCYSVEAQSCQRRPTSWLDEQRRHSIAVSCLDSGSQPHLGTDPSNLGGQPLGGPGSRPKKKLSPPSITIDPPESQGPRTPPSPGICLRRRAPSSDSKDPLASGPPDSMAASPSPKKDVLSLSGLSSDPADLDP

Compound	IC50 [1] [µM]	IC50 [2] [µM]
CC(C)(C)C(=O)Nc1ccncc1C(=O)NCC(C)(C)S(=O)(=O)c1cccc(C(F)(F)F)c1 [Compound 477, N-(2-methyl-2-(3-(trifluoromethyl)phenylsulfonyl)propyl)-4-pivalamidonicotinamide]	0.54	> 10
CC(C)(CNC(=O)c1nc2cc(F)ccc2[nH]1)S(=O)(=O)c1cccc(C(F)(F)F)c1 [Compound 478, 5-fluoro-N-(2-methyl-2-(3-(trifluoromethyl)phenylsulfonyl)propyl)-1H-benzo[d]imidazole-2-carboxamide]	0.27	5.34
CC(C)(CNC(=O)c1ccc(Cl)c(Cl)c1)S(=O)(=O)c1cccc(C(F)(F)F)c1 [Compound 479, 3,4-dichloro-N-(2-methyl-2-(3-(trifluoromethyl)phenylsulfonyl)propyl) benzamide]	0.9	2.09
CC(C)(CNC(=O)c1ccc(Cl)cc1Cl)S(=O)(=O)c1cccc(C(F)(F)F)c1 [Compound 480, 2,4-dichloro-N-(2-methyl-2-(3-(trifluoromethyl)phenylsulfonyl)propyl) benzamide]	0.72	5.44
COc1c(C)cc(C(=O)NCC(C)(C)S(=O)(=O)c2cccc(C(F)(F)F)c2)cc1C [Compound 481, 4-methoxy-3,5-dimethyl-N-(2-methyl-2-(3-(trifluoromethyl)phenylsulfonyl)propyl) benzamide]	0.72	> 10
CC(C)(CNC(=O)c1ccc(F)c(Cl)c1)S(=O)(=O)c1cccc(C(F)(F)F)c1 [Compound 482, 3-chloro-4-fluoro-N-(2-methyl-2-(3-(trifluoromethyl)phenylsulfonyl)propyl) benzamide]	0.96	3.69
CC(C)(CNC(=O)c1ccc(OCC(F)(F)F)nc1)S(=O)(=O)c1cccc(C(F)(F)F)c1 [Compound 483, N-(2-methyl-2-(3-(trifluoromethyl)phenylsulfonyl)propyl)-6-(2,2,2-trifluoroethoxy) nicotinamide]	0.9	3.85
CC(C)(C)c1cc(C(=O)NCC(C)(C)S(=O)(=O)c2cccc(C(F)(F)F)c2)ccn1 [Compound 484, 2-tert-butyl-N-(2-methyl-2-(3-(trifluoromethyl)phenylsulfonyl)propyl) isonicotinamide]	0.53	6.69
CC(C)(CC(=O)Nc1ccc(Oc2ccc(F)cc2)cc1)S(=O)(=O)c1cccc(C(F)(F)F)c1 [Compound 486, N-(4-(4-fluorophenoxy)phenyl)-3-methyl-3-(3-(trifluoromethyl)phenylsulfonyl)butanamide]	0.51	0.86
CC(C)(C(=O)Nc1ccc(Oc2ccccc2)cc1)S(=O)(=O)c1cccc(C(F)(F)F)c1 [Compound 487, 2-methyl-N-(4-phenoxyphenyl)-2-(3-(trifluoromethyl)phenylsulfonyl)propanamide]	0.21	3.31
CC(C)(C(=O)Nc1ccc(Oc2ccc(F)cc2)cc1)S(=O)(=O)c1cccc(C(F)(F)F)c1 [Compound 488, N-(4-(4-fluorophenoxy)phenyl)-2-methyl-2-(3-(trifluoromethyl)phenylsulfonyl)propanamide]	0.29	2.88
CC(C)(CNS(=O)(=O)c1cccc2nsnc12)S(=O)(=O)c1cccc(C(F)(F)F)c1 [Compound 490]	0.46	> 10
CC(C)(CNS(=O)(=O)c1cccc2cccnc12)S(=O)(=O)c1cccc(C(F)(F)F)c1 [Compound 491, N-(2-methyl-2-(3-(trifluoromethyl)phenylsulfonyl)propyl)quinoline-8-sulfonamide]	0.47	> 10
CC(C)(CNS(=O)(=O)c1ccc2c(c1)NC(=O)CO2)S(=O)(=O)c1cccc(C(F)(F)F)c1 [Compound 492, N-(2-methyl-2-(3-(trifluoromethyl)phenylsulfonyl)propyl)-3-oxo-3,4-dihydro-2H-benzo[b][1,4]oxazine-6-sulfonamide]	0.59	9.26
CC(C)(CNS(=O)(=O)c1ccccc1C(F)(F)F)S(=O)(=O)c1cccc(C(F)(F)F)c1 [Compound 494, N-(2-methyl-2-(3-(trifluoromethyl)phenylsulfonyl)propyl)-2-(trifluoromethyl) benzenesulfonamide]	0.4	3.53
CC(C)(CNS(=O)(=O)c1cccc(C(F)(F)F)c1)S(=O)(=O)c1cccc(C(F)(F)F)c1 [Compound 495, N-(2-methyl-2-(3-(trifluoromethyl)phenylsulfonyl)propyl)-3-(trifluoromethyl) benzenesulfonamide]	0.19	2.05
CC(C)(CNS(=O)(=O)c1ccc(OC(F)(F)F)cc1)S(=O)(=O)c1cccc(C(F)(F)F)c1 [Compound 496, N-(2-methyl-2-(3-(trifluoromethyl)phenylsulfonyl)propyl)-4-(trifluoromethoxy) benzenesulfonamide]	0.17	0.35
CC(C)(CNS(=O)(=O)c1ccc(C(F)(F)F)cc1Cl)S(=O)(=O)c1cccc(C(F)(F)F)c1 [Compound 498, 2-chloro-N-(2-methyl-2-(3-(trifluoromethyl)phenylsulfonyl)propyl)-4-(trifluoromethyl) benzenesulfonamide]	0.26	1.38
CC(C)(C)c1ccc(S(=O)(=O)NCC(C)(C)S(=O)(=O)c2cccc(C(F)(F)F)c2)cc1 [Compound 499, 4-tert-butyl-N-(2-methyl-2-(3-(trifluoromethyl)phenylsulfonyl)propyl) benzenesulfonamide]	0.09	1.01
CC(C)(CNS(=O)(=O)c1ccc2c(c1)OCO2)S(=O)(=O)c1cccc(C(F)(F)F)c1 [Compound 500, N-(2-methyl-2-(3-(trifluoromethyl)phenylsulfonyl)propyl)benzo[d] [1,3]dioxole-5-sulfonamide]	0.34	3.11
CC(C)(CNS(=O)(=O)c1ccc2ncsc2c1)S(=O)(=O)c1cccc(C(F)(F)F)c1 [Compound 501, N-(2-methyl-2-(3-(trifluoromethyl)phenylsulfonyl)propyl)benzo [d]thiazole-6-sulfonamide]	0.42	> 10
CC(C)(C)Oc1ccc(CNC(=O)C(C)(C)S(=O)(=O)c2cccc(C(F)(F)F)c2)cc1 [Compound 502, N-(4-tert-butoxybenzyl)-2-methyl-2-(3-(trifluoromethyl)phenylsulfonyl)propanamide]	0.36	3.06
CC(C)(C(=O)Nc1ccc(Oc2ccc(F)cc2)nc1)S(=O)(=O)c1cccc(C(F)(F)F)c1 [Compound 503, N-(6-(4-fluorophenoxy)pyridin-3-yl)-2-methyl-2-(3-(trifluoromethyl)phenylsulfonyl)propanamide]	0.19	2.81
CC(C)(CNC(=O)c1cn2ccc(C(F)(F)F)cc2n1)S(=O)(=O)c1cccc(C(F)(F)F)c1 [Compound 505, N-(2-methyl-2-(3-(trifluoromethyl)phenylsulfonyl)propyl)-7-(trifluoromethyl)imidazo[1,2-a]pyridine-2-carboxamide]	0.61	9.93
CC(C)(CCNC(=O)c1ccc(Oc2ccc(Cl)cc2)cc1)S(=O)(=O)c1cccc(C(F)(F)F)c1 [Compound 506, 4-(4-chlorophenoxy)-N-(3-methyl-3-(3-(trifluoromethyl)phenylsulfonyl)butyl) benzamide]	0.29	0.64
